The assay concerns HIF-1. The assay can be described thus: Inhibition of HIF-1 mediated HRE transcription activity (pGL3-HRE-luciferase reporter). Format: cell-based, human. The following applies: HCT116, hypoxic condition 12 hours. Here is the method: To investigate the inhibition of HIF-1 transcription activity by the compound of the present invention, pGL3-basic vector (Promega) using luciferase as a reporter was cloned in multi-cloning site so as for HRE (Hypoxia Responsive Element, 5′-ACGTG-3′) existing in human VEGF gene to be repeated 6 times, resulting in the construction of pGL3-HRE-luciferase vector.
The human rectal cancer cell line HCT116 was seeded in a 48-well cell culture vessel. On the next day, the cells were transfected with 25 ng of pGL3-HRE-luciferase vector and 2.5 ng of Renilla control vector by using Polyfect reagent. After culturing the cells for 24 hours, the medium was replaced, followed by further culture for 4 hours. Then, the cells were treated with the compound prepared in each example at the concentration of 10 μM respectively, followed by culture in hypoxic condition (oxygen 1%, nitrogen 94%, carbon dioxide 5%) for 12 hours. Lysate was obtained by using RIPA buffer, by which hypoxia-induced luciferase activity was measured by using dual-luciferase assay system (Promega). Hypoxia-induced luciferase activity after the treatment of the compound prepared in example 1 or the compound prepared in comparative example 1 was measured by the same manner as described above except that the compound was treated at the concentrations of 0, 1, 3, 5, 10, and 20 μM. HIF-1 inhibition activity of each compound prepared in example 1 and comparative example 1 respectively was compared and the results are shown in Table 2 and FIG. 2.
(In a reporter assay the amount or activity of a reporter protein is the signal.)

The source of these data is patent publication US8940936B2, “Aryloxy phenoxy acrylic compound having HIF-1 inhibition activity, method for preparing same, and pharmaceutical composition containing same as an active ingredient” (Korea Research Institute of Bioscience and Biotechnology, priority 2010, dated 2015).

Regarding `COC(=O)c1ccc(O)c(NC(=O)COc2ccc(C34CC5CC(CC(C5)C3)C4)cc2)c1` [Comparative Example 1, 3-[2-(4-adamantan-1-yl-phenoxy)-acetylamino]-4-hydroxy-benzoic acid methyl ester, reference compound], the “HRE transcription activity (%)” value (1 μM) worked out at 119.4%; the “HRE transcription activity (%)” value (3 μM) came out at 121.5%; the “HRE transcription activity (%)” value (5 μM) amounted to 98.8%; the “HRE transcription activity (%)” value (10 μM) stood at 75.6%; the “HRE transcription activity (%)” value (20 μM) is recorded as 43.1%.
